The target in assay [1] is amyloid-β (Aβ40) aggregates (Homo sapiens, UniProt P05067). Kind of assay: fluorescence intensity binding assay with synthetic Aβ[…] aggregates.
The target in assay [2] is amyloid-β (Aβ42) aggregates (Homo sapiens, UniProt P05067). Described as above.

Molecules are shown by their SMILES.

Sequence of amyloid-β (Aβ42) aggregates (P05067 672-713): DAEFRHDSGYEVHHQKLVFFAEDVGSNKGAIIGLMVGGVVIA
Sequence of amyloid-β (Aβ40) aggregates (P05067 672-711): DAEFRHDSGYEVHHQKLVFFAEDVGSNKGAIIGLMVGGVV

`CC1(C)C(/C=C/C2=C(c3ccc(CCC(=O)O)cc3)C(=C/C=C3/N(CCC[N+](C)(C)C)c4ccc(S(=O)(=O)O)cc4C3(C)C)/CCC2)=[N+](CCC[N+](C)(C)C)c2ccc(S(=O)(=O)O)cc21` [ZW800–1C]: the Kd in assay [1] was found to be 43.7 ± 5.8 nM; in assay [2] it was 78.9 ± 12.3 nM.

As a reminder, the Kd is the free concentration of one partner at which half of the binding sites on the other are occupied at equilibrium, for simple one-to-one binding. Read a low Kd as tighter binding.

Source of the values: PMC10040441 (Nature biomedical engineering, 2023).
